# Source: patent publication US11236120B2, “Azithromycin derivatives with epithelial barrier enhancement properties” (EpiEndo Pharmaceuticals ehf, priority 2015, dated 2022)
# Legend:
# [1] = Solubility in 10 mM phosphate buffer (pH 7.4); format: physicochemical; conditions: pH 7.4, aqueous buffer, kinetic from dmso stock, 60 minutes at room temperature, filtered, read-out: MTS Solubility in Buffer (pH 7.4)
# Description: Solubility in 10 mM Phosphate Buffer (pH 7.4)
# The solubility sample testing of the compounds was performed by in phosphate buffer at pH 7.4 and using HPLC-MS detection. A stock solution of […] in DMSO was prepared for each compound. For the solubility test sample, 100 μL of the stock solution was diluted with 3.9 mL of a 10 mM phosphate buffer at […] to a final concentration of […]. The buffer solution was left to stand for 60 minutes at room temperature and then filtered. The filtrate was analyzed against two calibration points of the same analyte prepared at […] using HPLC-MS. These calibration points were prepared from the same stock solution as the solubility sample by diluting it with DMSO:H2O (1:1) 1:40 and then again 1:10. The chromatographic signal area of the analyte in the solubility sample was then compared to the chromatographic signal area of the two calibration samples.
# (§1) The chromatographic separation was performed on a Waters HPLC-MS system using a 50×2.1 mm×Bridge C18 column and a gradient elution of Water with 0.1% formic acid and acetonitrile with 0.1% formic acid. The analytes were analyzed in positive electro-spray mode using the (M+H)^+ in single ion recording.
# [2] = Stability in human plasma; format: in vitro ADME; conditions: room temperature
# Description: (§2) Stability in Mouse and Human Plasma
# (§3) The stability of the compounds in mouse and human plasma was performed using protein precipitation as sample clean-up and HPLC-MS detection. The plasma stability studies of the compounds was performed at room temperature for up to 4 hours. A stock solution of […] in DMSO was prepared for each compound. For the plasma stability samples, 100 μL of the stock solution was diluted with 3.9 mL of either mouse or human plasma to a final concentration of […]. The plasma was left to equilibrate for 10 minutes at room temperature before the first analysis. For each analyzed time point ([…]) a 100 μL aliquot of the plasma was removed and protein precipitation (PPT) was performed on the aliquot by adding 900 μL of (ACN:DMSO) 95:5. The precipitated sample was shaken for 60 seconds and then centrifuged. The supernatant was transferred to an HPLC vial and analyzed using HPLC-MS. The chromatographic signal area of the samples at the different time points were then compared against each other, by setting the initial analysis at t=0 min as 100% and then calculating the %-value for each subsequent time point.
# as §1
# [3] = Stability in mouse plasma; format: in vitro ADME; conditions: room temperature
# Description: as §2, §3, §1
Compound,solubility at 60 min [1],Degradation in Human Plasma at RT [2],Degradation in Mouse Plasma at RT [3]
"CC[C@H]1OC(=O)[C@H](C)[C@@H](O)[C@H](C)[C@@H](O[C@@H]2O[C@H](C)C[C@H](N(C)C(=O)CCOc3ccccc3)[C@H]2O)[C@](C)(O)C[C@@H](C)CN(C)[C@H](C)[C@@H](O)[C@]1(C)O [Example 28, N-[(2S,3R,4S,6R)-2-[[(2R,3S,4R,5R,8R,10R,11R,12S,13S,14R)-2-ethyl-3,4,10,13-tetrahydroxy-3,5,6,8,10,12,14-heptamethyl-15-oxo-1-oxa-6-azacyclopentadec-11-yl]oxy]-3-hydroxy-6-methyl-tetrahydropyran-4-yl]-N-methyl-3-phenoxy-propanamide]",1.42 µM,Stable,Stable
"CC[C@H]1OC(=O)[C@H](C)[C@@H](O)[C@H](C)[C@@H](O[C@@H]2O[C@H](C)C[C@H](N(C)C(=O)CCC(=O)O)[C@H]2O)[C@](C)(O)C[C@@H](C)CN(C)[C@H](C)[C@@H](O)[C@]1(C)O [Example 18, 4-[[(2S,3R,4S,6R)-2-[[(2R,3S,4R,5R,8R,10R,11R,12S,13S,14R)-2-ethyl-3,4,10,13-tetrahydroxy-3,5,6,8,10,12,14-heptamethyl-15-oxo-1-oxa-6-azacyclopentadec-11-yl]oxy]-3-hydroxy-6-methyl-tetrahydropyran-4-yl]-methyl-amino]-4-oxo-butanoic acid]",0.4 µM,Stable,–
"CCc1ccc(C(=O)O[C@H]2[C@H](O[C@@H]3[C@@H](C)[C@H](O)[C@@H](C)C(=O)O[C@H](CC)[C@@](C)(O)[C@H](O)[C@@H](C)N(C)C[C@H](C)C[C@@]3(C)O)O[C@H](C)C[C@@H]2N(C)C)cc1 [Example 22, [(2S,3R,4S,6R)-4-(dimethylamino)-2-[[(2R,3S,4R,5R,8R,10R,11R,12S,13S,14R)-2-ethyl-3,4,10,13-tetrahydroxy-3,5,6,8,10,12,14-heptamethyl-15-oxo-1-oxa-6-azacyclopentadec-11-yl]oxy]-6-methyl-tetrahydropyran-3-yl]4-ethylbenzoate]",1.43 µM,Stable,Stable
"CC[C@H]1OC(=O)[C@H](C)[C@@H](O)[C@H](C)[C@@H](O[C@@H]2O[C@H](C)C[C@H](N(C)C(=O)CNC(=O)OCc3ccccc3)[C@H]2O)[C@](C)(O)C[C@@H](C)CN(C)[C@H](C)[C@@H](O)[C@]1(C)O [Example 27, Benzyl N-[2-[[(2S,3R,4S,6R)-2-[[(2R,3S,4R,5R,8R,10R,11R,12S,13S,14R)-2-ethyl-3,4,10,13-tetrahydroxy-3,5,6,8,10,12,14-heptamethyl-15-oxo-1-oxa-6-azacyclopentadec-11-yl]oxy]-3-hydroxy-6-methyl-tetrahydropyran-4-yl]-methyl-amino]-2-oxo-ethyl]carbamate]",0.3 µM,Stable,3 % per hour
"CC[C@H]1OC(=O)[C@H](C)[C@@H](O)[C@H](C)[C@@H](O[C@@H]2O[C@H](C)C[C@H](NC)[C@H]2O)[C@](C)(O)C[C@@H](C)CN(C)[C@H](C)[C@@H](O)[C@]1(C)O [Example 30, (2R,3S,4R,5R,8R,10R,11R,12S,13S,14R)-2-ethyl-3,4,10,13-tetrahydroxy-11-[(2S,3R,4S,6R)-3-hydroxy-6-methyl-4-(methylamino)tetrahydropyran-2-yl]oxy-3,5,6,8,10,12,14-heptamethyl-1-oxa-6-azacyclopentadecan-15-one]",0.49 µM,Stable,Stable
"CC[C@H]1OC(=O)[C@H](C)[C@@H](O)[C@H](C)[C@@H](O[C@@H]2O[C@H](C)C[C@H](N(C)C(=O)Cc3ccccc3)[C@H]2O)[C@](C)(O)C[C@@H](C)CN(C)[C@H](C)[C@@H](O)[C@]1(C)O [Example 29, N-[(2S,3R,4S,6R)-2-[[(2R,3S,4R,5R,8R,10R,11R,12S,13S,14R)-2-ethyl-3,4,10,13-tetrahydroxy-3,5,6,8,10,12,14-heptamethyl-15-oxo-1-oxa-6-azacyclopentadec-11-yl]oxy]-3-hydroxy-6-methyl-tetrahydropyran-4-yl]-N-methyl-2-phenyl-acetamide]",0.77 µM,2 % per hour,Stable
"CC[C@H]1OC(=O)[C@H](C)[C@@H](O)[C@H](C)[C@@H](O[C@@H]2O[C@H](C)C[C@H](N(C)C)[C@H]2OC(=O)c2ccc3ccccc3c2)[C@](C)(O)C[C@@H](C)CN(C)[C@H](C)[C@@H](O)[C@]1(C)O [Example 24, [(2S,3R,4S,6R)-4-(dimethylamino)-2-[[(2R,3S,4R,5R,8R,10R,11R,12S,13S,14R)-2-ethyl-3,4,10,13-tetrahydroxy-3,5,6,8,10,12,14-heptamethyl-15-oxo-1-oxa-6-azacyclopentadec-11-yl]oxy]-6-methyl-tetrahydropyran-3-yl]naphthalene-2-carboxylate]",2.4 µM,Stable,Stable
"CC[C@H]1OC(=O)[C@H](C)[C@@H](O)[C@H](C)[C@@H](O[C@@H]2O[C@H](C)C[C@H](N(C)C)[C@H]2OC(=O)CCC(=O)O)[C@](C)(O)C[C@@H](C)CN(C)[C@H](C)[C@@H](O)[C@]1(C)O [Example 17, 4-[(2S,3R,4S,6R)-4-(dimethylamino)-2-[[(2R,3S,4R,5R,8R,10R,11R,12S,13S,14R)-2-ethyl-3,4,10,13-tetrahydroxy-3,5,6,8,10,12,14-heptamethyl-15-oxo-1-oxa-6-azacyclopentadec-11-yl]oxy]-6-methyl-tetrahydropyran-3-yl]oxy-4-oxo-butanoic acid]",0.66 µM,20 % per hour,ca. 20% per hour
"CC[C@H]1OC(=O)[C@H](C)[C@@H](O)[C@H](C)[C@@H](O[C@@H]2O[C@H](C)C[C@H](N(C)C)[C@H]2OC(=O)c2ccc(-c3ccc(S(C)(=O)=O)cc3)cc2)[C@](C)(O)C[C@@H](C)CN(C)[C@H](C)[C@@H](O)[C@]1(C)O [Example 12, [(2S,3R,4S,6R)-4-(dimethylamino)-2-[[(2R,3S,4R,5R,8R,10R,11R,12S,13S,14R)-2-ethyl-3,4,10,13-tetrahydroxy-3,5,6,8,10,12,14-heptamethyl-15-oxo-1-oxa-6-azacyclopentadec-11-yl]oxy]-6-methyl-tetrahydropyran-3-yl]4-(4-methylsulfonylphenyl) benzoate]",0.3 µM,2 % per hour,2 % per hour
"CC[C@H]1OC(=O)[C@H](C)[C@@H](O)[C@H](C)[C@@H](O[C@@H]2O[C@H](C)C[C@H](N(C)C(=O)c3ccccc3)[C@H]2O)[C@](C)(O)C[C@@H](C)CN(C)[C@H](C)[C@@H](O)[C@]1(C)O [Example 7, N-[(2S,3R,4S,6R)-2-[[(2R,3S,4R,5R,8R,10R,11R,12S,13S,14R)-2-ethyl-3,4,10,13-tetrahydroxy-3,5,6,8,10,12,14-heptamethyl-15-oxo-1-oxa-6-azacyclopentadec-11-yl]oxy]-3-hydroxy-6-methyl-tetrahydropyran-4-yl]-N-methyl-benzamide]",0.23 µM,Stable,–
"CC[C@H]1OC(=O)[C@H](C)[C@@H](O)[C@H](C)[C@@H](O[C@@H]2O[C@H](C)C[C@H](N(C)C(=O)COCc3ccccc3)[C@H]2O)[C@](C)(O)C[C@@H](C)CN(C)[C@H](C)[C@@H](O)[C@]1(C)O [Example 26, 2-benzyloxy-N-[(2S,3R,4S,6R)-2-[[(2R,3S,4R,5R,8R,10R,11R,12S,13S,14R)-2-ethyl-3,4,10,13-tetrahydroxy-3,5,6,8,10,12,14-heptamethyl-15-oxo-1-oxa-6-azacyclopentadec-11-yl]oxy]-3-hydroxy-6-methyl-tetrahydropyran-4-yl]-N-methyl-acetamide]",0.3 µM,Stable,4 % per hour
